# Experimental data as given in patent publication US20020045638A1, “Method of treating estrogen receptor positive carcinoma” (priority 2000, published 2002).
# Where two headings read alike, the source gives them in different places.
# Tests used:
# [1] = tested on: BG-1 human ovarian cancer cells; experiment: Inhibition of growth of BG-1 ovarian cancer cells (MTT), with MacSynergy II synergy analysis; assay type: cell-based; details: for inhibition at 0.005 µM / inhibition at 0.01 µM / inhibition at 0.05 µM / inhibition at 0.1 µM / inhibition at 0.2 µM / inhibition at 0.4 µM: Homo sapiens, read-out: Percent Inhibition; for Percent Inhibition: Table G, ERA-923 0 nM
# Protocol: In these test procedures, rapamycin 42-ester with 3-hydroxy-2-(hydroxymethyl)-2-methylpropionic acid was used as a representative rapamycin, and 2-(4-hydroxy-phenyl)-3-methyl-1-[4-(2-piperdin-1-yl-ethoxy)-benzyl-1 H-indol-5-ol, raloxifene, and 4-hydroxytamoxifen were used as representative antiestrogens.
# One day before the experiment, cells were plated in 96-well plates at a cell density of 2,500 cells/well in IMEM medium supplemented with 10% fetal bovine serum. The next day, cells were treated with various concentrations of antiestrogen and rapamycin 42-ester with 3-hydroxy-2-(hydroxymethyl)-2-methylpropionic acid (referred to as CCI-779 in the tables below). Five or six-days later, cell growth was monitored.
# MCF-7 tumors = experiment: Growth of MCF-7 breast carcinoma implanted in nude mice; assay type: in vivo; details: for Tumor size (mean ± standard error): 5 mg/kg CCI-779 PO q2d days 1-9
# Protocol: In the third standard pharmacological test procedure, mice implanted with MCF-7 tumors were treated with a combination of ERA-923 and CCI-779. […] ERA-923 was dissolved in 1% Tween 80 and 0.9% NaCl Injection USP. Drug was aliquoted into daily doses using 10.0 ml glass bottles and frozen at −20° C. until needed. CCI-779 was made fresh using a 5% ETOH, 4.9% Phosal and 0.1% Tween 80 in Sterile Water. 0.2 ml of each drug was given orally starting the day after tumor implantation. ERA 923 was given daily for the duration of the experiment and CCI-779 was given every other day for the first 10 days. The control vehicles were given on the same regime as the drugs. MCF7 cells were cultured in IMEM containing 5% Fetal Bovine Serum with passages varying from 2-20. After trypsinization tumors were resuspended in IMEM with 2% Serum at a 1:1 ratio with Matrigel. 10 million cells were injected subcutaneously into the mammary tissue of each mouse using a 1.0 ml tuberculin syringe with a 23 3/4 gauge needle. Five to six week old female ovariectomized athymic nu/nu mice (Charles River Labs: Wilmington, Mass.) weighing from 20.0-23.0 g were used. The animals were housed 5 to a cage in a Microisolator Open Rack System (Lab Products: Maywood, N.J.). Each mouse received a 17β-Estradiol pellet (0.72 mg/pellet-60 day release). The pellets were injected with a 10 gauge trochar into the lateral side of the neck between the ear and the shoulder 1-2 weeks prior to tumor injection. Control groups were 15 mice/vehicle whereas the drug groups were 10 mice/drug. Tumors were measured weekly by means of solar calipers (Cole-Parmer Instuments: Vernon Hills, Ill.) and tumor weights were estimated from tumor diameters by the following formula:
# Tumor weight (mg)=tumor length (mm)×tumor width (mm)^2/2.
# Mice were euthanized 36 days after tumor injection by CO2 inhalation. […] Nude mice bearing MCF-7 tumors were given ERA-923, CCI-779 or the combination of both drugs.
# [2] = tested on: MCF-7 human breast cancer cells; experiment: Inhibition of growth of MCF-7 breast cancer cells (MTT), with MacSynergy II synergy analysis; details: for inhibition at 0.005 µM / inhibition at 0.01 µM / inhibition at 0.05 µM / inhibition at 0.1 µM / inhibition at 0.2 µM / inhibition at 0.4 µM: Homo sapiens;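 as to all read-outs here: cells treated five or six days with single agents or combinations, growth read by MTT, synergy surface equals observed % inhibition minus Bliss additive prediction, values under 0% signal antagonism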
smiles,measurement,setting,value
"CO[C@H]1C[C@@H]2CC[C@@H](C)[C@@](O)(O2)C(=O)C(=O)N2CCCC[C@H]2C(=O)O[C@H]([C@H](C)C[C@@H]2CC[C@@H](OC(=O)C(C)(CO)CO)[C@H](OC)C2)CC(=O)[C@H](C)/C=C(\C)[C@@H](O)[C@@H](OC)C(=O)[C@H](C)C[C@H](C)/C=C/C=C/C=C/1C [CCI-779, rapamycin 42-ester with 3-hydroxy-2-(hydroxymethyl)-2-methylpropionic acid]",inhibition at 0.005 µM,"[1]; Table H, CCI-779 5 nM, 4-Hydroxytamoxifen 0 nM",21.4%
same,inhibition at 0.01 µM,"[1]; Table H, CCI-779 10 nM, 4-Hydroxytamoxifen 0 nM",24.9%
same,inhibition at 0.05 µM,"[1]; Table H, CCI-779 50 nM, 4-Hydroxytamoxifen 0 nM",56.3%
same,inhibition at 0.1 µM,"[1]; Table H, CCI-779 100 nM, 4-Hydroxytamoxifen 0 nM",56.4%
same,inhibition at 0.2 µM,"[1]; Table H, CCI-779 200 nM, 4-Hydroxytamoxifen 0 nM",60.7%
same,inhibition at 0.4 µM,"[1]; Table H, CCI-779 400 nM, 4-Hydroxytamoxifen 0 nM",64.9%
same,inhibition at 0.005 µM,"[1]; Table I, CCI-779 5 nM, Raloxifene 0 nM",8.26%
same,inhibition at 0.01 µM,"[1]; Table I, CCI-779 10 nM, Raloxifene 0 nM",12.5%
same,inhibition at 0.05 µM,"[1]; Table I, CCI-779 50 nM, Raloxifene 0 nM",37.7%
same,inhibition at 0.1 µM,"[1]; Table I, CCI-779 100 nM, Raloxifene 0 nM",42.1%
same,inhibition at 0.2 µM,"[1]; Table I, CCI-779 200 nM, Raloxifene 0 nM",48.4%
same,inhibition at 0.4 µM,"[1]; Table I, CCI-779 400 nM, Raloxifene 0 nM",53%
same,Percent Inhibition,[1]; CCI-779 5 nM,19.98%
same,Percent Inhibition,[1]; CCI-779 10 nM,22.68%
same,Percent Inhibition,[1]; CCI-779 50 nM,49.76%
same,Percent Inhibition,[1]; CCI-779 100 nM,58.79%
same,Percent Inhibition,[1]; CCI-779 200 nM,55.65%
same,Percent Inhibition,[1]; CCI-779 400 nM,61.94%
same,Tumor size (mean ± standard error),MCF-7 tumors; day 14 after tumor implantation,260 ± 18 mg
same,Tumor size (mean ± standard error),MCF-7 tumors; day 21 after tumor implantation,485 ± 53 mg
same,Tumor size (mean ± standard error),MCF-7 tumors; day 28 after tumor implantation,704 ± 63 mg
same,Tumor size (mean ± standard error),MCF-7 tumors; day 36 after tumor implantation,1123 ± 134 mg
same,inhibition of tumor growth,"MCF-7 tumors; nude mice bearing MCF-7 tumors, growth inhibition=experimental value−200 (baseline)/control value −200",approximately 35%
same,increase of growth inhibition as estimated by the IC50,[2]; CCI-779 in the presence of non-inhibitory concentrations of ERA-923,approximately 40 fold
same,inhibition at 0.005 µM,"[2]; MCF7, read-out: Percent Inhibition, Table B, CCI-779 5 nM, 4-Hydroxytamoxifen 0 nM",-16.5%
same,inhibition at 0.01 µM,"[2]; MCF7, read-out: Percent Inhibition, Table B, CCI-779 10 nM, 4-Hydroxytamoxifen 0 nM",1.47%
same,inhibition at 0.05 µM,"[2]; MCF7, read-out: Percent Inhibition, Table B, CCI-779 50 nM, 4-Hydroxytamoxifen 0 nM",15%
same,inhibition at 0.1 µM,"[2]; MCF7, read-out: Percent Inhibition, Table B, CCI-779 100 nM, 4-Hydroxytamoxifen 0 nM",24.6%
same,inhibition at 0.2 µM,"[2]; MCF7, read-out: Percent Inhibition, Table B, CCI-779 200 nM, 4-Hydroxytamoxifen 0 nM",25.2%
same,inhibition at 0.4 µM,"[2]; MCF7, read-out: Percent Inhibition, Table B, CCI-779 400 nM, 4-Hydroxytamoxifen 0 nM",34%
same,inhibition at 0.005 µM,"[2]; MCF7, read-out: Percent Inhibition, Table C, CCI-779 5 nM, Raloxifene 0 nM",-13.8%
same,inhibition at 0.01 µM,"[2]; MCF7, read-out: Percent Inhibition, Table C, CCI-779 10 nM, Raloxifene 0 nM",-3.3%
same,inhibition at 0.05 µM,"[2]; MCF7, read-out: Percent Inhibition, Table C, CCI-779 50 nM, Raloxifene 0 nM",35.3%
same,inhibition at 0.1 µM,"[2]; MCF7, read-out: Percent Inhibition, Table C, CCI-779 100 nM, Raloxifene 0 nM",38.1%
same,inhibition at 0.2 µM,"[2]; MCF7, read-out: Percent Inhibition, Table C, CCI-779 200 nM, Raloxifene 0 nM",38.1%
same,inhibition at 0.4 µM,"[2]; MCF7, read-out: Percent Inhibition, Table C, CCI-779 400 nM, Raloxifene 0 nM",39.8%
same,inhibition at 0.005 µM,"[2]; MCF7, read-out: Percent Inhibition, Table E, CCI-779 0 nM + CCI-779 5 nM",-4.19%
same,inhibition at 0.01 µM,"[2]; MCF7, read-out: Percent Inhibition, Table E, CCI-779 0 nM + CCI-779 10 nM",10.2%
same,inhibition at 0.05 µM,"[2]; MCF7, read-out: Percent Inhibition, Table E, CCI-779 0 nM + CCI-779 50 nM",49.8%
same,inhibition at 0.1 µM,"[2]; MCF7, read-out: Percent Inhibition, Table E, CCI-779 0 nM + CCI-779 100 nM",46.8%
same,inhibition at 0.2 µM,"[2]; MCF7, read-out: Percent Inhibition, Table E, CCI-779 0 nM + CCI-779 200 nM",53.5%
same,inhibition at 0.4 µM,"[2]; MCF7, read-out: Percent Inhibition, Table E, CCI-779 0 nM + CCI-779 400 nM",55.3%
same,inhibition at 0.005 µM,"[2]; MCF7, read-out: Percent Inhibition, Table E, CCI-779 5 nM + CCI-779 5 nM",13.2%
same,inhibition at 0.01 µM,"[2]; MCF7, read-out: Percent Inhibition, Table E, CCI-779 5 nM + CCI-779 10 nM",18.6%
same,inhibition at 0.05 µM,"[2]; MCF7, read-out: Percent Inhibition, Table E, CCI-779 5 nM + CCI-779 50 nM",49.2%
